Reference: PMC8498107 (Frontiers in Molecular Neuroscience, 2021)

What was measured:
[1] = target: T1, GlyR α1β^Y252S + eGFP-gephyrin (Homo sapiens, UniProt P23415+P48167, Y274S); assay type: cell-based
T1 construct: Full-length cDNAs encoding the human wild-type (WT) or mutated GlyR β variants; expressed in transfected cells; host or cells: HEK-293
Procedure: (§1) Full-length cDNAs encoding the human wild-type (WT) or mutated GlyR β variants (β^x) (with x = Y252S, S321F, and A455P) were cloned into the eukaryotic expression vector pRK5 (gift from †P. Seeburg, Heidelberg) and mutagenesis was performed as previously described ([James et al., 2013]). GlyR β variants were further subcloned into pRK5 harboring a myc-epitope at the N-terminus 5′ of residues ^1KEKS^4 representing the first amino acids of the mature GlyR β sequence. eGFP-gephyrin constructs were previously described ([Harvey et al., 2004]). All expression constructs were fully sequenced to verify successful mutagenesis.
(§2) HEK-293 cells were transiently transfected using a modified calcium-phosphate precipitation method. Transfection was performed at a confluency of 50–75%, 24 h after seeding of 200,000 cells on glass cover slips in 35 mm culture dishes or 1.5 × 10^6 cells per 10 cm dish. For 35 mm and 10 cm culture dishes GlyR α1, GlyR β or GlyR β variants and eGFP-gephyrin were transfected in a ratio of cDNAs 1:10:5, e.g., 0.2 μg α1, 2 μg β, and 1 μg of eGFP-gephyrin for 35 mm dishes. To label cellular compartments, low copy number vectors were used to exclude effects from overexpression [1 μg; dsRed MEM = fusion of sequence from neuromodulin (GAP-43) and dsRed to label the plasma membrane or dsRed ER = fusion construct of dsRed and calreticulin sequence to label the ER]. The DNA was supplied with 2.5 M CaCl2, 0.1x TE buffer and 2x HBS buffer (50 mM HEPES, 12 mM glucose, 10 mM KCl, 280 mM NaCl, 1.5 mM Na2HPO4) mixed and incubated for 20 min at room temperature. The medium was exchanged after 4–6 h and cells were used for experiments 24–48 h after transfection.
(§3) Electrophysiological characterization was performed on transfected HEK-293 cells using the patch-clamp method for whole cell recordings. Experiments were performed at room temperature. […] Current responses were amplified with an EPC-9 amplifier (HEKA Elektronik GmbH, Lambrecht/Pfalz, Germany) and measured at a holding potential of −60 mV using PatchMaster Next software (HEKA Elektronik GmbH, Lambrecht/Pfalz, Germany).

[2] = target: T2, GlyR α1β^S321F (Homo sapiens, UniProt P23415+P48167, S343F); assay type: cell-based
T2 construct: Full-length cDNAs encoding the human wild-type (WT) or mutated GlyR β variants; expressed in transfected cells; host or cells: HEK-293
Procedure: as §1, §2, §3

[3] = target: T3, GlyR α1β (wild-type) (Homo sapiens, UniProt P23415+P48167); assay type: cell-based
T3 construct: Full-length cDNAs encoding the human wild-type (WT) or mutated GlyR β variants; expressed in transfected cells; host or cells: HEK-293
Procedure: as §1, §2, §3

[4] = target: T4, GlyR α1β^A455P (Homo sapiens, UniProt P23415+P48167, A477P); assay type: cell-based
T4 construct: Full-length cDNAs encoding the human wild-type (WT) or mutated GlyR β variants; expressed in transfected cells; host or cells: HEK-293
Procedure: as §1, §2, §3

[5] = target: T5, GlyR α1β^S321F + eGFP-gephyrin (Homo sapiens, UniProt P23415+P48167, S343F); assay type: cell-based
T5 construct: Full-length cDNAs encoding the human wild-type (WT) or mutated GlyR β variants; expressed in transfected cells; host or cells: HEK-293
Procedure: as §1, §2, §3

[6] = target: T6, GlyR α1β (wild-type) + eGFP-gephyrin (Homo sapiens, UniProt P23415+P48167); assay type: cell-based
T6 construct: Full-length cDNAs encoding the human wild-type (WT) or mutated GlyR β variants; expressed in transfected cells; host or cells: HEK-293
Procedure: as §1, §2, §3

[7] = target: T7, GlyR α1β^A455P + eGFP-gephyrin (Homo sapiens, UniProt P23415+P48167, A477P); assay type: cell-based
T7 construct: Full-length cDNAs encoding the human wild-type (WT) or mutated GlyR β variants; expressed in transfected cells; host or cells: HEK-293
Procedure: as §1, §2, §3

[8] = target: T8, GlyR α1β^Y252S (Homo sapiens, UniProt P23415+P48167, Y274S); assay type: cell-based
T8 construct: Full-length cDNAs encoding the human wild-type (WT) or mutated GlyR β variants; expressed in transfected cells; host or cells: HEK-293
Procedure: as §1, §2, §3

[9] = target: T9, GlyR α1 homomers (Homo sapiens, UniProt P23415); test: picrotoxinin block of the glycine-gated response, whole-cell patch-clamp in HEK-293 cells; assay type: cell-based; conditions: 100 μM glycine + 100 μM picrotoxinin compared to 100 μM glycine alone
T9 construct: expressed in transfected cells; host or cells: HEK-293
T9 sequence (P23415 29-457): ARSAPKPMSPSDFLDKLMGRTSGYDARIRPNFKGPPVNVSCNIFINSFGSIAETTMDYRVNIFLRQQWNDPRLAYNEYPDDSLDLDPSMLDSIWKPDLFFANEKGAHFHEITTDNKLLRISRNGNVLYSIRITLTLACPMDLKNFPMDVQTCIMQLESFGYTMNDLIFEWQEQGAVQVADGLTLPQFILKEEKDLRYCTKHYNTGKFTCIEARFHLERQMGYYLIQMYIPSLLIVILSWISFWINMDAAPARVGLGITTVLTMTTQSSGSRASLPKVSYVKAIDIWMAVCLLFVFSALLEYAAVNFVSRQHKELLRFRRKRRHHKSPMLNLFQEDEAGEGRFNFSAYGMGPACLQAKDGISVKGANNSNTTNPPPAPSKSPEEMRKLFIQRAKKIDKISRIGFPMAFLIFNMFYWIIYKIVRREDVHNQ
Procedure: as §2, with “The medium was exchanged after 4–6 h and cells were used for experiments 24–48 h after transfection.” left out
as §3, with “recordings.” for “recordings. Experiments were performed at room temperature.”

[10] = test system: α1β^x channels; test: as above; assay type: cell-based, human; conditions: 100 μM glycine + 100 μM picrotoxinin compared to 100 μM glycine alone
Procedure: as §1
HEK-293 cells were transiently transfected using a modified calcium-phosphate precipitation method. Transfection was performed at a confluency of 50–75%, 24 h after seeding of 200,000 cells on glass cover slips in 35 mm culture dishes or 1.5 × 10^6 cells per 10 cm dish. […]
as §3, with “recordings.” for “recordings. Experiments were performed at room temperature.”

[11] = test system: hyperekplexia phenotype; parameters: method as in Bode and Lynch, 2014; conditions: clinical, gain-of-function and loss-of-function mutations; ref Bode and Lynch, 2014; cited from earlier work
[12] = test system: heteromeric αβ channels versus homomeric α subunit GlyRs; parameters: method as in Pribilla et al., 1992; conditions: heteromeric αβ channels almost unaffected; ref Pribilla et al., 1992; cited from earlier work
[13] = in the presence of eGFP-gephyrin, remaining current, 100 μM glycine + 100 μM picrotoxinin versus 100 μM glycine alone
[14] = residual current, 100 μM picrotoxinin + 100 μM glycine versus 100 μM glycine alone

T8 sequence (P48167 23-497 Y274S, one chain of several): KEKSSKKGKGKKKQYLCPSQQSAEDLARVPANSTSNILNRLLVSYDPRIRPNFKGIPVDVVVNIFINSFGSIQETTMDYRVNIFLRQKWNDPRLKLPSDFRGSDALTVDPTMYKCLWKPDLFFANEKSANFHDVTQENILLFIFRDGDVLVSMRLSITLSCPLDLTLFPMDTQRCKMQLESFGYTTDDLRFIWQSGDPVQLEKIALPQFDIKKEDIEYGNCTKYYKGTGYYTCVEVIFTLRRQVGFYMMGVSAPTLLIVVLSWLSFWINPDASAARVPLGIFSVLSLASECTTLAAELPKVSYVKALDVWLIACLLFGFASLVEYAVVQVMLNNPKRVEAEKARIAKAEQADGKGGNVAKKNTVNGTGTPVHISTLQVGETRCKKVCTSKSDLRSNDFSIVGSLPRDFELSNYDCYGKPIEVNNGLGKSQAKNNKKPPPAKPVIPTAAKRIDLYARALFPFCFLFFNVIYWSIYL
T1 sequence (P48167 23-497 Y274S, one chain of several): as above
T2 sequence (P48167 23-497 S343F, one chain of several): as the sequence (P48167 23-497 Y274S, one chain of several) above, with S252Y, S321F counted along it
T5 sequence (P48167 23-497 S343F, one chain of several): as the sequence (P48167 23-497 Y274S, one chain of several) above, with S252Y, S321F counted along it
T4 sequence (P48167 23-497 A477P, one chain of several): as the sequence (P48167 23-497 Y274S, one chain of several) above, with S252Y, A455P counted along it
T6 sequence (P48167 23-497, one chain of several): as the sequence (P48167 23-497 Y274S, one chain of several) above, with S252Y counted along it
T3 sequence (P48167 23-497, one chain of several): as the sequence (P48167 23-497 Y274S, one chain of several) above, with S252Y counted along it
T7 sequence (P48167 23-497 A477P, one chain of several): as the sequence (P48167 23-497 Y274S, one chain of several) above, with S252Y, A455P counted along it

With C=C(C)[C@@H]1[C@H]2OC(=O)[C@@H]1[C@]1(O)C[C@H]3O[C@]34C(=O)O[C@H]2[C@]14C [picrotoxinin] the “Ipicrotoxinin + glycine/ Iglycine” value [1, 13] was 84 ± 9%, the “I 100 μM picrotoxinin + glycine/I 100 μM glycine” value [2, 14] was 111 ± 15% and the “I 100 μM picrotoxinin + glycine/I 100 μM glycine” value [3, 14] was 90 ± 11%. The “I 100 μM picrotoxinin + glycine/I 100 μM glycine” value [4, 14] was 86 ± 10%, the “Ipicrotoxinin + glycine/ Iglycine” value [5, 13] was 73 ± 4% and the “Ipicrotoxinin + glycine/ Iglycine” value [6, 13] was 72 ± 7%. The “Ipicrotoxinin + glycine/ Iglycine” value [7, 13] was 92 ± 17%, the “I 100 μM picrotoxinin + glycine/I 100 μM glycine” value [8, 14] was 99 ± 19% and the “reduction in current amplitude of the original value (block of the glycine-gated response)” value [9] was 29.22%. For the same compound, the picrotoxinin block [10] was 0–19%.

For O=C1CN=C(c2ccccc2Cl)c2cc([N+](=O)[O-])ccc2N1 [clonazepam], the “treatment of the hyperekplexia phenotype” value [11] is listed as “effective treatment in many cases”.

For picrotoxin, the “fold less effective on heteromeric αβ channels than on homomeric α subunit GlyRs” value [12] is listed as 50–200 fold.

NCC(=O)O [glycine] showed an Imax [1] of 3.7 ± 0.9 nA, an Imax [2] of 5.1 ± 0.7 nA and an Imax [3] of 4.1 ± 0.4 nA. It also gave an Imax [4] of 9.5 ± 1.2 nA, an Imax [5] of 4.1 ± 0.7 nA and an Imax [6] of 2.9 ± 1.0 nA. It also gave an Imax [7] of 6.6 ± 1.1 nA and an Imax [8] of 4.7 ± 0.6 nA.
